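At the GI50, growth is halved. Definition used: TGI = concentration required for complete inhibition of growth.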
Experiments:
Experiment in all cases: NCI tumour cell line growth inhibition, 384-well format
HOP-62 NSCLC = tested on: HOP-62 NSCLC
SF-268 CNS = tested on: SF-268 CNS
U251 glioblastoma = tested on: U251 glioblastoma
PC-3 prostate = tested on: PC-3 prostate
SK-MEL-2 melanoma = tested on: SK-MEL-2 melanoma
UO-31 renal = tested on: UO-31 renal
BT-549 breast = tested on: BT-549 breast
NCI-H23 lung = tested on: NCI-H23 lung
A549 NSCLC = tested on: A549 NSCLC
RXF 393 renal = tested on: RXF 393 renal
NCI-H460 NSCLC = tested on: NCI-H460 NSCLC
RPMI-8226 leukemia = tested on: RPMI-8226 leukemia
COLO 205 colon = tested on: COLO 205 colon
MDA-MB-435 melanoma = tested on: MDA-MB-435 melanoma
K-562 leukemia = tested on: K-562 leukemia
SK-MEL-5 melanoma = tested on: SK-MEL-5 melanoma
MALME-3M melanoma = tested on: MALME-3M melanoma
MOLT-4 leukemia = tested on: MOLT-4 leukemia
DU-145 prostate = tested on: DU-145 prostate
LOX IMVI melanoma = tested on: LOX IMVI melanoma
NCI-H226 lung = tested on: NCI-H226 lung
CCRF-CEM leukemia = tested on: CCRF-CEM leukemia
M14 melanoma = tested on: M14 melanoma
OVCAR-8 ovarian = tested on: OVCAR-8 ovarian
786-0 renal = tested on: 786-0 renal
HCC-2998 colon = tested on: HCC-2998 colon
OVCAR-3 ovarian = tested on: OVCAR-3 ovarian
HT29 colon = tested on: HT29 colon
HCT-116 colon = tested on: HCT-116 colon
OVCAR-4 ovarian = tested on: OVCAR-4 ovarian
NCI-H522 lung = tested on: NCI-H522 lung
UACC-62 melanoma = tested on: UACC-62 melanoma
HOP-92 NSCLC = tested on: HOP-92 NSCLC
NCI/ADR-RES ovarian = tested on: NCI/ADR-RES ovarian
HL-60(TB) leukemia = tested on: HL-60(TB) leukemia
T-47D breast = tested on: T-47D breast
SNB-19 CNS = tested on: SNB-19 CNS
KM12 colon = tested on: KM12 colon
TK-10 renal = tested on: TK-10 renal
ACHN renal = tested on: ACHN renal
SN12C renal = tested on: SN12C renal
UACC-257 melanoma = tested on: UACC-257 melanoma
SR leukemia = tested on: SR leukemia
MDA-MB-468 breast = tested on: MDA-MB-468 breast
SF-539 CNS = tested on: SF-539 CNS
SK-MEL-28 melanoma = tested on: SK-MEL-28 melanoma
CAKI-1 renal = tested on: CAKI-1 renal
OVCAR-5 ovarian = tested on: OVCAR-5 ovarian
NCI-H322M lung = tested on: NCI-H322M lung
IGROV1 ovarian = tested on: IGROV1 ovarian
A498 renal = tested on: A498 renal
HCT-15 colon = tested on: HCT-15 colon
MCF7 breast = tested on: MCF7 breast
SW-620 colon = tested on: SW-620 colon

CN[C@@H](C)C(=O)N[C@H](C(=O)N1CCC[C@H]1C(=O)N[C@H]1c2ccccc2C[C@H]1OCC#CC#CCO[C@@H]1Cc2ccccc2[C@@H]1NC(=O)[C@@H]1CCCN1C(=O)[C@@H](NC(=O)[C@H](C)NC)C1CCCCC1)C1CCCCC1
GI50 (HOP-62 NSCLC): 0.0349 µM | TGI (HOP-62 NSCLC): 0.441 µM | GI50 (SF-268 CNS): 1.67 µM | TGI (SF-268 CNS): 3.04 µM | GI50 (U251 glioblastoma): 1.49 µM | TGI (U251 glioblastoma): 2.82 µM | GI50 (PC-3 prostate): 1.81 µM | TGI (PC-3 prostate): 3.85 µM | GI50 (SK-MEL-2 melanoma): < 0.01 µM | TGI (SK-MEL-2 melanoma): < 0.01 µM | GI50 (UO-31 renal): 19.5 µM | TGI (UO-31 renal): 33.7 µM | GI50 (BT-549 breast): < 0.01 µM | TGI (BT-549 breast): 1.92 µM | GI50 (NCI-H23 lung): < 0.01 µM | TGI (NCI-H23 lung): 0.0576 µM | GI50 (A549 NSCLC): 5.33 µM | TGI (A549 NSCLC): 18.6 µM | GI50 (RXF 393 renal): < 0.01 µM | TGI (RXF 393 renal): < 0.01 µM | GI50 (NCI-H460 NSCLC): 1.77 µM | TGI (NCI-H460 NSCLC): 3.19 µM | GI50 (RPMI-8226 leukemia): < 0.01 µM | TGI (RPMI-8226 leukemia): 1.1 µM | GI50 (COLO 205 colon): 1.37 µM | TGI (COLO 205 colon): 2.66 µM | GI50 (MDA-MB-435 melanoma): < 0.01 µM | TGI (MDA-MB-435 melanoma): 2.03 µM | GI50 (K-562 leukemia): 2.32 µM | TGI (K-562 leukemia): 6.27 µM | GI50 (SK-MEL-5 melanoma): < 0.01 µM | TGI (SK-MEL-5 melanoma): 0.0446 µM | GI50 (MALME-3M melanoma): < 0.01 µM | TGI (MALME-3M melanoma): < 0.01 µM | GI50 (MOLT-4 leukemia): 1.48 µM | TGI (MOLT-4 leukemia): 2.8 µM | GI50 (DU-145 prostate): 1.04 µM | TGI (DU-145 prostate): 2.53 µM | GI50 (LOX IMVI melanoma): 2.12 µM | TGI (LOX IMVI melanoma): 3.56 µM | GI50 (NCI-H226 lung): 6.96 µM | TGI (NCI-H226 lung): 19.8 µM | GI50 (CCRF-CEM leukemia): < 0.01 µM | TGI (CCRF-CEM leukemia): 1.31 µM | GI50 (M14 melanoma): 1.9 µM | TGI (M14 melanoma): 3.49 µM | GI50 (OVCAR-8 ovarian): 0.135 µM | TGI (OVCAR-8 ovarian): 2.22 µM | GI50 ([…]-0 renal): 2.92 µM | TGI (786-0 renal): 11.4 µM | GI50 (HCC-2998 colon): 1.62 µM | TGI (HCC-2998 colon): 2.98 µM | GI50 (OVCAR-3 ovarian): 1.32 µM | TGI (OVCAR-3 ovarian): 2.64 µM | GI50 (HT29 colon): 1.66 µM | TGI (HT29 colon): 3.1 µM | GI50 (HCT-116 colon): 1.67 µM | TGI (HCT-116 colon): 3.12 µM | GI50 (OVCAR-4 ovarian): < 0.01 µM | TGI (OVCAR-4 ovarian): < 0.01 µM | GI50 (NCI-H522 lung): < 0.01 µM | TGI (NCI-H522 lung): 1.02 µM | GI50 (UACC-62 melanoma): 1.65 µM | TGI (UACC-62 melanoma): 3.01 µM | GI50 (HOP-92 NSCLC): < 0.01 µM | TGI (HOP-92 NSCLC): 0.641 µM | GI50 (NCI/ADR-RES ovarian): 4.65 µM | TGI (NCI/ADR-RES ovarian): 35.5 µM | GI50 (HL-60(TB) leukemia): < 0.01 µM | TGI (HL-60(TB) leukemia): < 0.01 µM | GI50 (T-47D breast): 1.73 µM | TGI (T-47D breast): 3.17 µM | GI50 (SNB-19 CNS): 1.56 µM | TGI (SNB-19 CNS): 2.97 µM | GI50 (KM12 colon): 1.65 µM | TGI (KM12 colon): 3.03 µM | GI50 (TK-10 renal): 14 µM | TGI (TK-10 renal): 27 µM | GI50 (ACHN renal): 15.3 µM | TGI (ACHN renal): 28.6 µM | GI50 (SN12C renal): 2.14 µM | TGI (SN12C renal): 3.61 µM | GI50 (UACC-257 melanoma): 1.52 µM | TGI (UACC-257 melanoma): 2.85 µM | GI50 (SR leukemia): 0.0188 µM | TGI (SR leukemia): 1.05 µM | GI50 (MDA-MB-468 breast): < 0.01 µM | TGI (MDA-MB-468 breast): < 0.01 µM | GI50 (SF-539 CNS): 1.64 µM | TGI (SF-539 CNS): 3.01 µM | GI50 (SK-MEL-28 melanoma): 1.37 µM | TGI (SK-MEL-28 melanoma): 2.67 µM | GI50 (CAKI-1 renal): 15.1 µM | TGI (CAKI-1 renal): 28.4 µM | GI50 (OVCAR-5 ovarian): 12.3 µM | TGI (OVCAR-5 ovarian): 24.8 µM | GI50 (NCI-H322M lung): 2.25 µM | TGI (NCI-H322M lung): 5.31 µM | GI50 (IGROV1 ovarian): 1.78 µM | TGI (IGROV1 ovarian): 3.46 µM | GI50 (A498 renal): 13.5 µM | TGI (A498 renal): 26.3 µM | GI50 (HCT-15 colon): 18 µM | TGI (HCT-15 colon): 31.9 µM | GI50 (MCF7 breast): 1.33 µM | TGI (MCF7 breast): 2.62 µM | GI50 (SW-620 colon): 2.16 µM | TGI (SW-620 colon): 4.3 µM

Reference: PubChem BioAssay (NCI)
